For nine molecules, IC50 and EC50 results are on record in ChEMBL document CHEMBL3616405 (J Med Chem, 2015).

Test [1] deals with T1, Glucagon-like peptide 1 receptor (Homo sapiens, UniProt P43220). In words: Displacement of [125I]-GLP1 from human GLP1 receptor expressed in BHK cells after 2 hrs in absence of human serum albumin. The test is classed as cell-based.
Test [2] has as its target T1, Glucagon-like peptide 1 receptor. In words: Displacement of [125I]-GLP1 from human GLP1 receptor expressed in BHK cells after 2 hrs in presence of 2% human serum albumin. The test is classed as cell-based.
For test [3] the target is unchanged. In words: Agonist activity at human GLP1 receptor expressed in BHK cells after 3 hrs by CRE firefly luciferase reporter gene assay in absence of human serum albumin. In kind it is functional, cell-based.

The structures appear in SMILES notation.

T1 sequence (P43220 whole entry): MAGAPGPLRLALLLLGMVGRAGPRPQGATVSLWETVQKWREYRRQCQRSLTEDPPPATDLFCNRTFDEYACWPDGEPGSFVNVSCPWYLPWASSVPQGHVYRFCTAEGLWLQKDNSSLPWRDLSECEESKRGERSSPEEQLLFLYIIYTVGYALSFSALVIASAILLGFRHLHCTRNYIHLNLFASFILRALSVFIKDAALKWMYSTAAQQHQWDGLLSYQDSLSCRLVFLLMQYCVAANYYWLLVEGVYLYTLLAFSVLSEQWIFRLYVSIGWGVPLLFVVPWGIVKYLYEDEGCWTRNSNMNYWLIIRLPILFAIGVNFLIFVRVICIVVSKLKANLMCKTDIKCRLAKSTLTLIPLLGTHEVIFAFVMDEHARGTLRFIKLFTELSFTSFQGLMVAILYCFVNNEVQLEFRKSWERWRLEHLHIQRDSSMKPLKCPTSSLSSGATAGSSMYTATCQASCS

For `CC[C@H](C)[C@H](NC(=O)[C@H](Cc1ccccc1)NC(=O)[C@H](CCC(=O)O)NC(=O)[C@H](CCCCN)NC(=O)[C@H](C)NC(=O)[C@H](C)NC(=O)[C@H](CCC(N)=O)NC(=O)CNC(=O)[C@H](CCC(=O)O)NC(=O)[C@H](CC(C)C)NC(=O)[C@H](Cc1ccc(O)cc1)NC(=O)[C@H](CO)NC(=O)[C@H](CO)NC(=O)[C@@H](NC(=O)[C@H](CC(=O)O)NC(=O)[C@H](CO)NC(=O)[C@@H](NC(=O)[C@H](Cc1ccccc1)NC(=O)[C@@H](NC(=O)CNC(=O)[C@H](CCC(=O)O)NC(=O)C(C)(C)NC(=O)[C@@H](N)Cc1c[nH]cn1)[C@@H](C)O)[C@@H](C)O)C(C)C)C(=O)N[C@@H](C)C(=O)N[C@@H](Cc1c[nH]c2ccccc12)C(=O)N[C@@H](CC(C)C)C(=O)N[C@H](C(=O)N[C@@H](CCCNC(=N)N)C(=O)NCC(=O)N[C@@H](CCCNC(=N)N)C(=O)NCC(=O)N[C@@H](CCCCNC(=O)COCCOCCNC(=O)COCCOCCNC(=O)CCCCCCCCCCCCCCCCC(=O)O)C(=O)O)C(C)C`, the concentration for half-maximal inhibition (IC50) in test [1] amounted to 0.27 nM; in test [2], 6.73 nM. The molecule also displayed a half-maximal effective concentration (EC50) in test [3] of 0.0675 nM.

`CC[C@H](C)[C@H](NC(=O)[C@H](Cc1ccccc1)NC(=O)[C@H](CCC(=O)O)NC(=O)[C@H](CCCCNC(=O)COCCOCCNC(=O)COCCOCCNC(=O)CC[C@H](NC(=O)CCCCCCCCCCCCCCCCCCCCC(=O)O)C(=O)O)NC(=O)[C@H](C)NC(=O)[C@H](C)NC(=O)[C@H](CCC(N)=O)NC(=O)CNC(=O)[C@H](CCC(=O)O)NC(=O)[C@H](CC(C)C)NC(=O)[C@H](Cc1ccc(O)cc1)NC(=O)[C@H](CO)NC(=O)[C@H](CO)NC(=O)[C@@H](NC(=O)[C@H](CC(=O)O)NC(=O)[C@H](CO)NC(=O)[C@@H](NC(=O)[C@H](Cc1ccccc1)NC(=O)[C@@H](NC(=O)CNC(=O)[C@H](CCC(=O)O)NC(=O)C(C)(C)NC(=O)[C@@H](N)Cc1c[nH]cn1)[C@@H](C)O)[C@@H](C)O)C(C)C)C(=O)N[C@@H](C)C(=O)N[C@@H](Cc1c[nH]c2ccccc12)C(=O)N[C@@H](CC(C)C)C(=O)N[C@H](C(=O)N[C@@H](CCCNC(=N)N)C(=O)NCC(=O)N[C@@H](CCCNC(=N)N)C(=O)NCC(=O)O)C(C)C`: the IC50 stood at 0.21 nM in test [1] and 24.8 nM in test [2]. In test [3], this molecule returned an EC50 of 0.0244 nM.

On to `CCCCCCCCCCCCCCCCCC(=O)N[C@@H](CCC(=O)NCCOCCOCC(=O)NCCOCCOCC(=O)NCCCC[C@H](NC(=O)[C@H](C)NC(=O)[C@H](C)NC(=O)[C@H](CCC(N)=O)NC(=O)CNC(=O)[C@H](CCC(=O)O)NC(=O)[C@H](CC(C)C)NC(=O)[C@H](Cc1ccc(O)cc1)NC(=O)[C@H](CO)NC(=O)[C@H](CO)NC(=O)[C@@H](NC(=O)[C@H](CC(=O)O)NC(=O)[C@H](CO)NC(=O)[C@@H](NC(=O)[C@H](Cc1ccccc1)NC(=O)[C@@H](NC(=O)CNC(=O)[C@H](CCC(=O)O)NC(=O)C(C)(C)NC(=O)[C@@H](N)Cc1c[nH]cn1)[C@@H](C)O)[C@@H](C)O)C(C)C)C(=O)N[C@@H](CCC(=O)O)C(=O)N[C@@H](Cc1ccccc1)C(=O)N[C@H](C(=O)N[C@@H](C)C(=O)N[C@@H](Cc1c[nH]c2ccccc12)C(=O)N[C@@H](CC(C)C)C(=O)N[C@H](C(=O)N[C@@H](CCCNC(=N)N)C(=O)NCC(=O)N[C@@H](CCCNC(=N)N)C(=O)NCC(=O)O)C(C)C)[C@@H](C)CC)C(=O)O`, for which the IC50 came to 0.04 nM in test [1] and 1.99 nM in test [2]. In addition, the EC50 in test [3] is 0.0032 nM.

Take `CC[C@H](C)[C@H](NC(=O)[C@H](Cc1ccccc1)NC(=O)[C@H](CCC(=O)O)NC(=O)[C@H](CCCNC(=N)N)NC(=O)[C@H](C)NC(=O)[C@H](C)NC(=O)[C@H](CCC(N)=O)NC(=O)CNC(=O)[C@H](CCC(=O)O)NC(=O)[C@H](CC(C)C)NC(=O)[C@H](Cc1ccc(O)cc1)NC(=O)[C@H](CO)NC(=O)[C@H](CO)NC(=O)[C@@H](NC(=O)[C@H](CC(=O)O)NC(=O)[C@H](CO)NC(=O)[C@@H](NC(=O)[C@H](Cc1ccccc1)NC(=O)[C@@H](NC(=O)CNC(=O)[C@H](CCC(=O)O)NC(=O)C(C)(C)NC(=O)[C@@H](N)Cc1c[nH]cn1)[C@@H](C)O)[C@@H](C)O)C(C)C)C(=O)N[C@@H](C)C(=O)N[C@@H](Cc1c[nH]c2ccccc12)C(=O)N[C@@H](CC(C)C)C(=O)N[C@H](C(=O)N[C@@H](CCCNC(=N)N)C(=O)NCC(=O)N[C@@H](CCCNC(=N)N)C(=O)NCC(=O)N[C@@H](CCCCNC(=O)CCCCCCCCCCCCCCCCC(=O)O)C(=O)O)C(C)C`: the IC50 in test [1] stood at 0.31 nM; in test [2], 7.55 nM. The molecule further gave an EC50 in test [3] of 0.0873 nM.

For the molecule `CCCCCCCCCCCCCCCCCCCC(=O)N[C@@H](CCC(=O)NCCOCCOCC(=O)NCCOCCOCC(=O)NCCCC[C@H](NC(=O)[C@H](C)NC(=O)[C@H](C)NC(=O)[C@H](CCC(N)=O)NC(=O)CNC(=O)[C@H](CCC(=O)O)NC(=O)[C@H](CC(C)C)NC(=O)[C@H](Cc1ccc(O)cc1)NC(=O)[C@H](CO)NC(=O)[C@H](CO)NC(=O)[C@@H](NC(=O)[C@H](CC(=O)O)NC(=O)[C@H](CO)NC(=O)[C@@H](NC(=O)[C@H](Cc1ccccc1)NC(=O)[C@@H](NC(=O)CNC(=O)[C@H](CCC(=O)O)NC(=O)C(C)(C)NC(=O)[C@@H](N)Cc1c[nH]cn1)[C@@H](C)O)[C@@H](C)O)C(C)C)C(=O)N[C@@H](CCC(=O)O)C(=O)N[C@@H](Cc1ccccc1)C(=O)N[C@H](C(=O)N[C@@H](C)C(=O)N[C@@H](Cc1c[nH]c2ccccc12)C(=O)N[C@@H](CC(C)C)C(=O)N[C@H](C(=O)N[C@@H](CCCNC(=N)N)C(=O)NCC(=O)N[C@@H](CCCNC(=N)N)C(=O)NCC(=O)O)C(C)C)[C@@H](C)CC)C(=O)O`, the values for the IC50 in test [1] and in test [2] were 0.18 nM and 0.88 nM, respectively. In test [3], a half-maximal response (EC50) required 0.0048 nM.

As for `CCCCCCCCCCCCCCCC(=O)N[C@@H](CCC(=O)NCCOCCOCC(=O)NCCOCCOCC(=O)NCCCC[C@H](NC(=O)[C@H](C)NC(=O)[C@H](C)NC(=O)[C@H](CCC(N)=O)NC(=O)CNC(=O)[C@H](CCC(=O)O)NC(=O)[C@H](CC(C)C)NC(=O)[C@H](Cc1ccc(O)cc1)NC(=O)[C@H](CO)NC(=O)[C@H](CO)NC(=O)[C@@H](NC(=O)[C@H](CC(=O)O)NC(=O)[C@H](CO)NC(=O)[C@@H](NC(=O)[C@H](Cc1ccccc1)NC(=O)[C@@H](NC(=O)CNC(=O)[C@H](CCC(=O)O)NC(=O)C(C)(C)NC(=O)[C@@H](N)Cc1c[nH]cn1)[C@@H](C)O)[C@@H](C)O)C(C)C)C(=O)N[C@@H](CCC(=O)O)C(=O)N[C@@H](Cc1ccccc1)C(=O)N[C@H](C(=O)N[C@@H](C)C(=O)N[C@@H](Cc1c[nH]c2ccccc12)C(=O)N[C@@H](CC(C)C)C(=O)N[C@H](C(=O)N[C@@H](CCCNC(=N)N)C(=O)NCC(=O)N[C@@H](CCCNC(=N)N)C(=O)NCC(=O)O)C(C)C)[C@@H](C)CC)C(=O)O`, the IC50 in test [2] is 3.78 nM.

On to `CCCCCCCCCCCCCCCC(=O)N[C@@H](CCC(=O)NCCOCCOCC(=O)NCCOCCOCC(=O)NCCOCCOCC(=O)NCCCC[C@H](NC(=O)[C@H](C)NC(=O)[C@H](C)NC(=O)[C@H](CCC(N)=O)NC(=O)CNC(=O)[C@H](CCC(=O)O)NC(=O)[C@H](CC(C)C)NC(=O)[C@H](Cc1ccc(O)cc1)NC(=O)[C@H](CO)NC(=O)[C@H](CO)NC(=O)[C@@H](NC(=O)[C@H](CC(=O)O)NC(=O)[C@H](CO)NC(=O)[C@@H](NC(=O)[C@H](Cc1ccccc1)NC(=O)[C@@H](NC(=O)CNC(=O)[C@H](CCC(=O)O)NC(=O)C(C)(C)NC(=O)[C@@H](N)Cc1c[nH]cn1)[C@@H](C)O)[C@@H](C)O)C(C)C)C(=O)N[C@@H](CCC(=O)O)C(=O)N[C@@H](Cc1ccccc1)C(=O)N[C@H](C(=O)N[C@@H](C)C(=O)N[C@@H](Cc1c[nH]c2ccccc12)C(=O)N[C@@H](CC(C)C)C(=O)N[C@H](C(=O)N[C@@H](CCCNC(=N)N)C(=O)NCC(=O)N[C@@H](CCCNC(=N)N)C(=O)NCC(=O)O)C(C)C)[C@@H](C)CC)C(=O)O`, for which the IC50 in test [1] (bhk) turned out to be 0.03 nM; in test [2] (bhk) it was 0.22 nM. In test [3] (bhk), this molecule returned an EC50 of 0.0043 nM.

`CC[C@H](C)[C@H](NC(=O)[C@H](Cc1ccccc1)NC(=O)[C@H](CCC(=O)O)NC(=O)[C@H](CCCCNC(=O)COCCOCCNC(=O)CC[C@H](NC(=O)CCCNC(=O)CCCCCCCCCCCCCCCCC(=O)O)C(=O)O)NC(=O)[C@H](C)NC(=O)[C@H](C)NC(=O)[C@H](CCC(N)=O)NC(=O)CNC(=O)[C@H](CCC(=O)O)NC(=O)[C@H](CC(C)C)NC(=O)[C@H](Cc1ccc(O)cc1)NC(=O)[C@H](CO)NC(=O)[C@H](CO)NC(=O)[C@@H](NC(=O)[C@H](CC(=O)O)NC(=O)[C@H](CO)NC(=O)[C@@H](NC(=O)[C@H](Cc1ccccc1)NC(=O)[C@@H](NC(=O)CNC(=O)[C@H](CCC(=O)O)NC(=O)C(C)(C)NC(=O)[C@@H](N)Cc1c[nH]cn1)[C@@H](C)O)[C@@H](C)O)C(C)C)C(=O)N[C@@H](C)C(=O)N[C@@H](Cc1c[nH]c2ccccc12)C(=O)N[C@@H](CC(C)C)C(=O)N[C@H](C(=O)N[C@@H](CCCNC(=N)N)C(=O)NCC(=O)N[C@@H](CCCNC(=N)N)C(=O)NCC(=O)O)C(C)C`: the IC50 in test [2] was determined as 20.7 nM. In addition, the midpoint of the response in test [3], the EC50, lay at 0.0107 nM.

For `CC[C@H](C)[C@H](NC(=O)[C@H](Cc1ccccc1)NC(=O)[C@H](CCC(=O)O)NC(=O)[C@H](CCCCNC(=O)COCCOCCNC(=O)COCCOCCNC(=O)c1ccc(CN(CCC(=O)O)C(=O)CCCCCCCCCCCCCCCCC(=O)O)cc1)NC(=O)[C@H](C)NC(=O)[C@H](C)NC(=O)[C@H](CCC(N)=O)NC(=O)CNC(=O)[C@H](CCC(=O)O)NC(=O)[C@H](CC(C)C)NC(=O)[C@H](Cc1ccc(O)cc1)NC(=O)[C@H](CO)NC(=O)[C@H](CO)NC(=O)[C@@H](NC(=O)[C@H](CC(=O)O)NC(=O)[C@H](CO)NC(=O)[C@@H](NC(=O)[C@H](Cc1ccccc1)NC(=O)[C@@H](NC(=O)CNC(=O)[C@H](CCC(=O)O)NC(=O)C(C)(C)NC(=O)[C@@H](N)Cc1c[nH]cn1)[C@@H](C)O)[C@@H](C)O)C(C)C)C(=O)N[C@@H](C)C(=O)N[C@@H](Cc1c[nH]c2ccccc12)C(=O)N[C@@H](CC(C)C)C(=O)N[C@H](C(=O)N[C@@H](CCCNC(=N)N)C(=O)NCC(=O)N[C@@H](CCCNC(=N)N)C(=O)NCC(=O)O)C(C)C`, the results for the IC50 in test [1] and in test [2] were 9.19 nM and 51.7 nM, respectively.
